Biological target: T1, IRAK4 (Homo sapiens, UniProt Q9NWZ3)
T1 sequence (Q9NWZ3 1-460): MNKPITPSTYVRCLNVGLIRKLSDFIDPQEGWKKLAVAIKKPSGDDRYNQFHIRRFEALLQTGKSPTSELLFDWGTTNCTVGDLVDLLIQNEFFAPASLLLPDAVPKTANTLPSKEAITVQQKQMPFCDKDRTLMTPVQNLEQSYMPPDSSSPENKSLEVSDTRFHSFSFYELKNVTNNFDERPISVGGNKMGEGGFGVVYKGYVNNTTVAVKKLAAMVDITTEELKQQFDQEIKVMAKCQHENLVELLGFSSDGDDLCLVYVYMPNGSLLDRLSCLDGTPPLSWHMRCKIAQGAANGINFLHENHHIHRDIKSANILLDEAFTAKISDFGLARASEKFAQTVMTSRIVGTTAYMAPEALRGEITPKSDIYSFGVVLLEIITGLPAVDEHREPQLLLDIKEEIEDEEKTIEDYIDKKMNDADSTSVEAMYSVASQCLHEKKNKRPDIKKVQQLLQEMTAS
Assay: HotSpot kinase assay
Format: biochemical

IC50: 2.83 nM
SMILES: COc1cc(N2CCN(C(=O)CCCC(=O)Nc3cccc4c3CN(C3CCC(=O)NC3=O)C4=O)CC2)ccc1NC(=O)c1cccc(-c2cc[nH]n2)n1 (stereo not shown) [PSP-0119, N-(4-(4-(5-((2-(2,6-dioxopiperidin-3-yl)-1-oxoisoindolin-4-yl)amino) −5-oxopentanoyl)piperazin-1-yl)-2-methoxyphenyl)-6-(1H-pyrazol-3-yl)picolinamide]
